How the values were obtained:
[1] = system: incurable, locally advanced, recurrent or metastatic solid tumors; details: cited from earlier work
[2] = system: platinum-resistant ovarian cancer, primary peritoneal carcinoma, or fallopian tube carcinoma; experiment: Randomized trial of gemcitabine + pertuzumab vs gemcitabine + placebo, PFS and OS by qRT-PCR HER3 (Examples 1 and 4); type: in vivo, human
Text: Patients who had progressed while receiving, or within 6 months of receiving, a platinum-based chemotherapy regimen were eligible for this study. Patients were randomized to receive either gemcitabine in combination with pertuzumab, or gemcitabine in combination with placebo. Patients treated herein included those who had not received a previous salvage regimen treatment for platinum-resistant disease prior to study entry, and those who had received one prior regimen for platinum-resistant disease. Gemcitabine was administered at 1000 mg/m^2 on days 1 and 8 of each 21 day cycle. Gemcitabine was infused first over 30 minutes. Dose reductions were permitted for toxicity. […] Subjects without progressive disease received treatment for up to 17 cycles, or 1 year. Patients had standard gemcitabine dose reduction and held doses as a result of cytopenias. […] Subsequent doses were at the reduced doses and were not increased. If dose reduction or holding a dose was required in more than 4 occasions, or if doses were held for more than 3 weeks, then gemcitabine was discontinued and with the approval of the treating physician and medical monitor, blinded drug was continued until disease progression. If Day 8 gemcitabine doses were held, then the Day 8 dose was omitted and the subsequent treatment was commenced with the next cycle (Day 22 of the previous cycle). Response was assessed at the end of Cycles 2, 4, 6, 8, 12 and 17. Measurable disease was assessed using the Response Evaluation Criteria for Solid Tumors (RECIST), by clinical evaluation and CT scan or equivalent. Response for subjects with evaluable disease was assessed according to changes to CA-125 and clinical and radiologic evidence of disease. Responses were confirmed 4-8 weeks after the initial documentation of response. The following outcome measures were assessed. Progression free survival, as determined by investigator assessment using RECIST or CA-125 changes, following initiation of assigned study treatment of all subjects in each arm. Formalin-fixed, paraffin embedded tissue (FFPET) samples obtained from the patients in this clinical trial were analyzed for EGFR, HER2, HER3, two HER ligands (amphiregulin and betacellulin), and G6PDH (a housekeeping gene) by qRT-PCR. The qRT-PCR assay was performed by TARGOS Molecular Pathology GmbH (Kassel, Germany) using Roche Diagnostic's lab lot kits. The workflow and analysis for performing the qRT-PCR assay on the clinical samples are depicted in FIGS. 27 and 28 herein. The efficacy results were assessed at 7.1 months median follow-up (range 1.3-20.3). There were 101 progression free survival (PFS) events at that time. […] P-values were estimated using stratified Cox model and stratified log-rank test by randomization stratification factors (ECOG PS, number of prior regimens for platinum resistant disease, and disease measurability). Patients with CDDP-R EOC were randomized to G+P or G+placebo. Treatment was given until progression or until unacceptable toxicity. The primary endpoint was PFS. A secondary objective was to evaluate efficacy outcomes in patients with HER2 activation-related expression profiles. A qRT-PCR assay using archival formalin-fixed paraffin-embedded tissue (FFPET), preformed as described above, allowed mRNA expression analysis of HER pathway genes, including HER1, HER2, HER3, amphiregulin, and betacellulin. Outcomes were described by low gene expression (<median) and by high gene expression (≧median).

[3] = system: advanced, refractory, or recurrent ovarian cancer; experiment: Single arm phase II trial of single agent pertuzumab, PFS and OS by HER3 qRT-PCR (Example 2); type: in vivo, human; details: for median survival: single agent pertuzumab, FIG. 25
Experimental: This example concerns a single arm, open label, multicenter phase II clinical trial of ovarian cancer patients. […] Tumor assessments were obtained after 2, 4, 6, 8, 12 and 16 cycles. Response Rate (RR) by RECIST was the primary endpoint. Safety and tolerability were additionally evaluated. Secondary endpoints were TTP, duration of response, duration of survival, pharmacokinetics (PK), and FOSI (cohort 2). qRT-PCR assays were performed on archived formalin fixed paraffin embedded tissue. Assay data is available for 46/117 patients. Here high HER3 expressors were in the greater than and equal to 75th percentile, while low HER3 expressors were in the less than 75th percentile.

[4] = in vivo; cited from earlier work
[5] = system: platinum-sensitive recurrent ovarian cancer; experiment: Randomized open-label Phase II study of pertuzumab with carboplatin-based standard chemotherapy (Example 3); type: in vivo, human; details: FIGS. 32-35
Text: In this randomized, open-label Phase II clinical study, the efficacy and safety of pertuzumab treatment in combination with carboplatin-based standard chemotherapy was investigated in patients with platinum-sensitive recurrent ovarian cancer. The target sample size is 100-500 individuals. Target sample size is 148. Inclusion Criteria: • histologically confirmed ovarian, primary peritoneal, or fallopian tube cancer; • only 1 previous regimen, which must be platinum-based; • platinum-sensitive disease which is defined by a progression-free interval of greater than 6 months after completion of platinum-based chemotherapy. Exclusion Criteria: • previous radiotherapy; • previous treatment with an anti-cancer vaccine or any targeted therapy; • major surgery or traumatic injury within 4 weeks of study; • history or evidence of central nervous system metastases.

For “pertuzumab: humanized HER2 antibody, HER dimerization inhibitor, comprising light and heavy chain amino acid sequences in SEQ ID NOS. 13 and 14”, the tolerability ([1]; in vivo, iv) is listed as “generally well tolerated”, the Tumor regression ([1]; patients evaluable for response, pertuzumab IV every 3 weeks) is listed as 3 of 20 and the confirmed partial responses ([1]; pertuzumab IV every 3 weeks) is listed as “Two”. The “pertuzumab activity (PFS) by HER3 expression” value ([2]; qRT-PCR HER3 cutoffs, FIGS. 14-15) was “greatest in patients with HER3 low expressing tumors”, the median survival ([3]; high HER3 expressing patients (greater than and equal to 75th percentile)) was 1.80 years and the median survival ([3]; low HER3 expressing patients (less than 75th percentile)) was 3.31 years. For the same compound, the “outcomes in terms of PFS and OS by HER3 expression” value ([3]; patients with low HER3 expression vs high) was “better outcomes in terms of PFS and OS”, the mean clearance [4] was 2.69 to 3.74 mL/day/kg and the “mean terminal elimination half-life” value [4] was 15.3 to 27.6 days. The “pertuzumab activity (PFS) by HER2:HER3 expression” value [5] was “greatest in patients with high HER2:HER3 expressing cancer” and the “pertuzumab activity (PFS) by HER3 expression” value [5] was “greatest in patients with HER3 low expressing cancer”.

In the case of Cl.Nc1ccn([C@@H]2O[C@H](CO)[C@@H](O)C2(F)F)c(=O)n1 (single isomer, unassigned) [G + Placebo, 2′-deoxy-2′,2′-difluorocytidine monohydrochloride (b-isomer)], the “OS (median months)” value ([2]; All Patients (n = 130)) is reported as 13.1 months, the “PFS (median months)” value ([2]; All Patients (n = 130)) is reported as 2.6 months and the “OS (median months)” value ([2]; High HER3 (N = 61), ≧median) is reported as 18.2 months. For the same compound, the “PFS (median months)” value ([2]; High HER3 (N = 61), ≧median) was 5.5 months, the “OS (median months)” value ([2]; Low HER3 (N = 61), <median) was 8.4 months and the “PFS (median months)” value ([2]; Low HER3 (N = 61), <median) was 1.4 months.

Source: patent US8940302B2, “Predicting response to a HER inhibitor” (Genentech, Inc., priority 2007, dated 2015)
